Experimental findings from US10669240B2, “5-substituted indazole-3-carboxamides and preparation and use thereof” (Samumed, LLC, priority 2014, dated 2020) are described below.

This test addresses DYRK1A (Homo sapiens (Human), UniProt Q13627). Put plainly: DYRK1A activity Tau assay: pSer396 Tau in SH-SY5Y cells by ELISA / western blot. Particulars: overnight (16-18 h) exposure. Type of test: cell-based. (In general: ELISA stands for enzyme-linked immunosorbent assay.)

A word on the EC50: it is the concentration needed to bring the measured effect to its halfway point. Read a low EC50 as an effect from little substance. `O=C(NC1CCN(CCF)CC1)c1n[nH]c2ccc(-c3cncc(Cl)c3)cc12` [Compound 1296, 5-(5-Chloropyridin-3-yl)-N-(1-(2-fluoroethyl)piperidin-4-yl)-1H-indazole-3-carboxamide] gave an EC50 of 27 nM.
Regarding `O=C(NC1CCN(CC(F)F)CC1)c1n[nH]c2ccc(-c3cncc(Cl)c3)cc12` [Compound 1299, 5-(5-Chloropyridin-3-yl)-N-(1-(2,2-difluoroethyl)piperidin-4-yl)-1H-indazole-3-carboxamide], the EC50 amounted to 20 nM.
Under `CC(F)(F)CN1CCC(NC(=O)c2n[nH]c3ccc(-c4cccnc4)cc23)CC1` [Compound 1300, N-(1-(2,2-Difluoropropyl)piperidin-4-yl)-5-(pyridin-3-yl)-1H-indazole-3-carboxamide] stands 6 nM; under `CC(F)(F)CN1CCC(NC(=O)c2n[nH]c3ccc(-c4cncc(F)c4)cc23)CC1` [Compound 1301, N-(1-(2,2-Difluoropropyl)piperidin-4-yl)-5-(5-fluoropyridin-3-yl)-1H-indazole-3-carboxamide], 23 nM.
Under `CC(F)(F)CN1CCC(NC(=O)c2n[nH]c3ccc(-c4cncc(Cl)c4)cc23)CC1` [Compound 1302, 5-(5-Chloropyridin-3-yl)-N-(1-(2,2-difluoropropyl)piperidin-4-yl)-1H-indazole-3-carboxamide] stands 31 nM.
Under `CC(C)N1CCC(NC(=O)c2n[nH]c3ccc(-c4cncc(C(F)F)c4)cc23)CC1` [Compound 1303, 5-(5-(Difluoromethyl)pyridin-3-yl)-N-(1-isopropylpiperidin-4-yl)-1H-indazole-3-carboxamide] stands 117 nM; under `CC(C)N1CCC(NC(=O)c2n[nH]c3cc(Cl)c(-c4cccnc4)cc23)CC1` [Compound 1304, 6-Chloro-N-(1-isopropylpiperidin-4-yl)-5-(pyridin-3-yl)-1H-indazole-3-carboxamide], 96 nM; under `CC(C)CN1CCC(NC(=O)c2n[nH]c3ccc(-c4cncc(F)c4)cc23)CC1` [Compound 1306, 5-(5-Fluoropyridin-3-yl)-N-(1-isobutylpiperidin-4-yl)-1H-indazole-3-carboxamide], 44 nM.
On to `CC(C)CN1CCC(NC(=O)c2n[nH]c3ccc(-c4cncc(Cl)c4)cc23)CC1` [Compound 1307, 5-(5-Chloropyridin-3-yl)-N-(1-isobutylpiperidin-4-yl)-1H-indazole-3-carboxamide], for which the EC50 is 47 nM.
Under `CC(C)CN1CCC(NC(=O)c2n[nH]c3cc(F)c(-c4cccnc4)cc23)CC1` [Compound 1308, 6-Fluoro-N-(1-isobutylpiperidin-4-yl)-5-(pyridin-3-yl)-1H-indazole-3-carboxamide] stands 17 nM; under `CC(C)(F)CN1CCC(NC(=O)c2n[nH]c3ccc(-c4cncc(F)c4)cc23)CC1` [Compound 1310, N-(1-(2-Fluoro-2-methylpropyl)piperidin-4-yl)-5-(5-fluoropyridin-3-yl)-1H-indazole-3-carboxamide], 19 nM.
Under `CC(C)(F)CN1CCC(NC(=O)c2n[nH]c3ccc(-c4cncc(Cl)c4)cc23)CC1` [Compound 1311, 5-(5-Chloropyridin-3-yl)-N-(1-(2-fluoro-2-methylpropyl)piperidin-4-yl)-1H-indazole-3-carboxamide] stands 30 nM; under `O=C(NC1CCN(CC2CC2)CC1)c1n[nH]c2ccc(-c3cncc(F)c3)cc12` [Compound 1312, N-(1-(Cyclopropylmethyl)piperidin-4-yl)-5-(5-fluoropyridin-3-yl)-1H-indazole-3-carboxamide], 33 nM; under `O=C(NC1CCN(CC2CCC2)CC1)c1n[nH]c2ccc(-c3cccnc3)cc12` [Compound 1314, N-(1-(Cyclobutylmethyl)piperidin-4-yl)-5-(pyridin-3-yl)-1H-indazole-3-carboxamide], 11 nM.
Under `CC(C)(C)CN1CCC(NC(=O)c2n[nH]c3ccc(-c4cncc(F)c4)cc23)CC1` [Compound 1315, 5-(5-Fluoropyridin-3-yl)-N-(1-neopentylpiperidin-4-yl)-1H-indazole-3-carboxamide] stands 870 nM.
